The values below are quoted from earlier work in patent US20260256955A1, “LIQUID COMPOSITION OF COMPOUND I, PREPARATION METHOD THEREFOR, AND APPLICATION THEREOF” (BEIJING SINOTAU PHARMACEUTICAL TECHNOLOGY CO., LTD, priority 2022, published 2026).

For the data set the following is noted: animals.

SMILES strings stand for the structures.

As to `CC(C)(C)n1ncc(OCc2cccc(Cn3cc(COCCOCC[18F])nn3)c2)c(Cl)c1=O` [Compound I, 2-tert-butyl-4-chloro-5-((3-((4-((2-(2-fluoro[^18F]ethoxy)ethoxy)methyl)-1H-1,2,3-triazol-1-yl)methyl)benzyl)oxy)pyridazin-3(2H)-one], under “15 minutes post-injection”, the cardiac uptake result is recorded as “high” and the liver uptake result is “low”. For the same compound, the heart-to-liver ratio result (after 60 minutes) was “favorable”.
